Where no end group is shown, it is not given here.
Experiments:
[1] = target: SARS-CoV-2 RBD (Severe acute respiratory syndrome coronavirus 2, UniProt P0DTC2); assay type: binding; details: maximum steady-state BLI response signal from fit
[2] = target: Noro P-domain (Norovirus Hu/GII.4/Sydney/NSW0514/2012/AU, UniProt K4LM89); test: BLI analysis, steady-state; assay type: binding, Norovirus GII.4; details: maximum steady-state BLI response signal from fit
[3] = target: T1, AFP (Homo sapiens, UniProt P02771); test: BLI analysis, steady-state; assay type: binding; details: for Kd: BLI Octet Red96, biotinylated target on SSA sensors, peptide 3.125 to 200 nM, 25°C, kinetics buffer (10 mM PBS, 0.1% BSA, 0.05% Tween-20), steady-state fit, 1:1 model; for Rmax: maximum steady-state BLI response signal from fit
T1 construct: purchased Sino Biological Co., LTD; (Beijing)
T1 sequence (P02771 19-609): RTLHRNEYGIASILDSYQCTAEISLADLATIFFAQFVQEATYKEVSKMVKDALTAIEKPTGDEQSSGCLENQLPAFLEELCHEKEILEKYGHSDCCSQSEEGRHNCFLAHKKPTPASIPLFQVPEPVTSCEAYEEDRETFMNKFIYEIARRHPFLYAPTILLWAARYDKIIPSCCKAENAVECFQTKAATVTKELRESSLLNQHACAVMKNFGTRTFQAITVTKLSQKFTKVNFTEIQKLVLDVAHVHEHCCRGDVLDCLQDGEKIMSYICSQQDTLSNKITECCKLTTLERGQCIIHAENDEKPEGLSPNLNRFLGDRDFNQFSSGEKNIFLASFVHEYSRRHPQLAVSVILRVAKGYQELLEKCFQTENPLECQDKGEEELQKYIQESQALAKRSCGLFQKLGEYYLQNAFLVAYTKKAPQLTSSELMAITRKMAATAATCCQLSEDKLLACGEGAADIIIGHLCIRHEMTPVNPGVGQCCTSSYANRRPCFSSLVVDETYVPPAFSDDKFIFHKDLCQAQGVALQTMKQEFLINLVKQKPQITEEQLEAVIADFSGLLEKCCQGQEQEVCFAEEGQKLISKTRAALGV

CPPPFPGRPPPWPPF [Pep-1927]
Rmax [1]: 0.1296±0.0076 nm

CPPPAPQFPFPWPPW [Pep-2458]
Rmax [1]: 0.2149±0.0080 nm

FPPPPPHPWPPPPWA [Pep-21]
Rmax [2]: 0.7092±0.0344 nm

PIWWYHAEKPEHWPI [Pep-5890]
Kd [3]: 74.8 ± 11 nM
Rmax [3]: 0.2242±0.0144 nm

CPPPPPYYKPPGHPP [Pep-6626]
Rmax [1]: 0.1940±0.0063 nm

WWALEHYPPPYMQIW [Pep-6973]
Kd [3]: 69.3 ± 14.4 nM
Rmax [3]: 0.2449±0.0216 nm

FPPPPWWDWPPPPWW [Pep-595]
Rmax [2]: 0.4957±0.0130 nm

FFGPPPWPPPPPPWY [Pep-3076]
Rmax [2]: 0.4267±0.0208 nm

WWWWWPHHDWKLVWC [Pep-7937]
Kd [3]: 40.6 ± 7.31 nM
Rmax [3]: 0.0945±0.0061 nm
